Test results from ChEMBL document CHEMBL5154879, “Induction of Genes Implicated in Stress Response and Autophagy by a Novel Quinolin-8-yl-nicotinamide QN523 in Pancreatic Cancer” (J Med Chem, 2022).
The source made the active and inactive calls. The rule behind the calls is not given here.

Columns and labels:
MIA PaCa-2 [1] = experiment: Induction of cell cycle arrest in human MIA PaCa-2 cells assessed as accumulation of cells in G2/M phase at 0.1 uM incubated for 24 hrs by RNase/propidium iodide staining based flow cytometry analysis (reference value: 8.11%); type: functional
MIA PaCa-2 [2] = experiment: Induction of autophagy in human MIA PaCa-2 cells assessed as accumulation of GABARAPL1 marker gene expression at upto 2 uM incubated for 72 hrs by Western blot analysis; type: functional, cell-based
MIA PaCa-2 [3] = experiment: Downregulation of E2F target gene expression in human MIA PaCa-2 cells by gene set enrichment analysis; type: functional, cell-based
MIA PaCa-2 [4] = experiment: Upregulation of P53 pathway in human MIA PaCa-2 cells by gene set enrichment analysis; type: functional, cell-based
MIA PaCa-2 [5] = experiment: Induction of apoptosis in human MIA PaCa-2 cells assessed as necrotic cells at 0.5 uM incubated for 48 hrs by Annexin V-FITC/PI staining based flow cytometry analysis (reference value: 1.07%); type: functional
[6] = Upregulation of DDIT3 gene expression in human MIA PaCa-2 cells assessed as fold change in DDIT3 expression at 1 uM incubated for 24 hrs by Bru-seq analysis relative to control; type: functional
[7] = Upregulation of SERPINB8 gene expression in human MIA PaCa-2 cells assessed as fold change in SERPINB8 expression at 1 uM incubated for 24 hrs by Bru-seq analysis relative to control; type: functional
MIA PaCa-2 [8] = experiment: Induction of apoptosis in human MIA PaCa-2 cells assessed as viable cells at 0.5 uM incubated for 48 hrs by Annexin V-FITC/PI staining based flow cytometry analysis (reference value: 96.3%); type: functional; details: read-out: Activity
[9] = Upregulation of MAP1LC3B gene expression in human MIA PaCa-2 cells assessed as fold change in MAP1LC3B expression at 1 uM incubated for 24 hrs by Bru-seq analysis relative to control; type: functional
[10] = Toxicity in NOD/SCID mouse xenografted with human MIA PaCa- 2 cells assessed as morphological changes in kidney at 10 to 20 mg/kg, ip administered five times a week for 44 days by H and E staining based inverted microscopic analysis; type: organism-based; details: in vivo, 1056 h, dose 10-20 mg/kg, time 44 day
MIA PaCa-2 [11] = experiment: Induction of cell cycle arrest in human MIA PaCa-2 cells assessed as accumulation of cells in G0/G1 phase at 0.5 uM incubated for 24 hrs by RNase/propidium iodide staining based flow cytometry analysis (reference value: 64.3%); type: functional
[12] = Toxicity in NOD/SCID mouse xenografted with human MIA PaCa-2 cells assessed as weakness at 10 to 20 mg/kg, ip administered five times a week for 44 days; type: organism-based; details: in vivo, 1056 h, dose 10-20 mg/kg, time 44 day
MIA PaCa-2 [13] = experiment: Induction of apoptosis in human MIA PaCa-2 cells assessed as early apoptotic cells at 0.1 uM incubated for 48 hrs by Annexin V-FITC/PI staining based flow cytometry analysis (reference value: 1.8%); type: functional
MIA PaCa-2 [14] = experiment: Induction of apoptosis in human MIA PaCa-2 cells assessed as viable cells at 0.1 uM incubated for 24 hrs by Annexin V-FITC/PI staining based flow cytometry analysis (reference value: 90.2%); type: functional; details: read-out: Activity
[15] = Downregulation of FASN gene expression in human MIA PaCa-2 cells assessed as fold change in FASN expression at 1 uM incubated for 24 hrs by Bru-seq analysis relative to control; type: functional
[16] = Downregulation of NEURLIB gene expression in human MIA PaCa-2 cells assessed as fold change in NEURLIB expression at 1 uM incubated for 24 hrs by Bru-seq analysis relative to control; type: functional
[17] = Toxicity in NOD/SCID mouse xenografted with human MIA PaCa- 2 cells assessed as morphological changes in pancreas at 10 to 20 mg/kg, ip administered five times a week for 44 days by H and E staining based inverted microscopic analysis; type: organism-based; details: in vivo, 1056 h, dose 10-20 mg/kg, time 44 day
[18] = Downregulation of PLEKHG3 gene expression in human MIA PaCa-2 cells assessed as fold change in PLEKHG3 expression at 1 uM incubated for 24 hrs by Bru-seq analysis relative to control; type: functional
[19] = Downregulation of H2AFX gene expression in human MIA PaCa-2 cells assessed as fold change in H2AFX expression at 1 uM incubated for 24 hrs by Bru-seq analysis relative to control; type: functional
MIA PaCa-2 [20] = experiment: Antitumor activity against human MIA PaCa-2 cells xenografted in NOD/SCID mouse assessed as tumor growth delay at 20 mg/kg, ip administered five times a week starting from day 10 to 44 post first dose and measured from day 17; type: functional, organism-based; details: time 44.0 day
MIA PaCa-2 [21] = experiment: Induction of cell cycle arrest in human MIA PaCa-2 cells assessed as accumulation of cells at S phase at 0.1 uM incubated for 48 hrs by RNase/propidium iodide staining based flow cytometry analysis (Rvb =26.9 %); type: functional
MIA PaCa-2 [22] = experiment: Downregulation of cell cycle gene expression in human MIA PaCa-2 cells; type: functional, cell-based
BXPC-3 = experiment: Cytotoxicity against human BXPC-3 cells assessed as inhibition of cell growth incubated for 72 hrs by MTT assay; type: functional, cell-based; details: BXPC-3, 72 h
MIA PaCa-2 [23] = experiment: Induction of cell cycle arrest in human MIA PaCa-2 cells assessed as accumulation of cells at S phase at 0.5 uM incubated for 48 hrs by RNase/propidium iodide staining based flow cytometry analysis (Rvb =26.9 %); type: functional
MIA PaCa-2 [24] = experiment: Induction of cell cycle arrest in human MIA PaCa-2 cells assessed as accumulation of cells at S phase at 0.1 uM incubated for 24 hrs by RNase/propidium iodide staining based flow cytometry analysis (Rvb =27.6 %); type: functional

In the case of `O=C(Nc1cccc2cccnc12)c1cnccn1`, the Activity (MIA PaCa-2 [1]) is reported as 14.9%, the Activity (MIA PaCa-2 [2]) is reported as “Active” and the Activity (MIA PaCa-2 [3]) is reported as “Active”. The Activity (MIA PaCa-2 [4]) was “Active”, the Activity (MIA PaCa-2 [5]) was 1.2% and the “fold change (FC)” value [6] was 11. The “fold change (FC)” value [7] was 5.3, the viability at 0.5 µM (MIA PaCa-2 [8]) was 95.3% and the “fold change (FC)” value [9] was 6.8. For the same molecule, the Activity [10] was “Non-Toxic”, the Activity (MIA PaCa-2 [11]) was 44.5% and the Activity [12] was “Non-Toxic”. For the same molecule, the Activity (MIA PaCa-2 [13]) was 5.5%, the viability at 0.1 µM (MIA PaCa-2 [14]) was 84.9% and the “fold change (FC)” value [15] was 0.41. For the same molecule, the “fold change (FC)” value [16] was 0.44, the Activity [17] was “Non-Toxic” and the “fold change (FC)” value [18] was 0.39. The “fold change (FC)” value [19] was 0.35, the Activity (MIA PaCa-2 [20]) was “Active” and the Activity (MIA PaCa-2 [21]) was 29.4%. The Activity (MIA PaCa-2 [22]) was “Active”, the IC50 (BXPC-3) was 3.3 µM and the Activity (MIA PaCa-2 [23]) was 57.3%. It also gave an Activity (MIA PaCa-2 [24]) of 33.2%.
